Measured values from ChEMBL document CHEMBL1201862, “PubChem BioAssay data set” (2004).
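Following 48 hours of exposure in 96-well plates, responses at five concentrations were used to interpolate endpoints linearly. GI50 = concentration required for 50% inhibition of growth.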 Active and inactive are the calls of the source. No stated cut-off is given here; in the data, active = GI50 up to about 1.1 µM and inactive = higher.

Legend:
Assay in all cases: inhibition of tumour cell growth, NCI panel, 48 h
A549 = tested on: A549
EKVX = tested on: EKVX
HCT-116 = tested on: HCT-116
K562 = tested on: K562
M14 = tested on: M14
MDA-MB-231 = tested on: MDA-MB-231
NCI-H460 = tested on: NCI-H460
NCI-H522 = tested on: NCI-H522
OVCAR-4 = tested on: OVCAR-4
RXF 393 = tested on: RXF 393
SF-539 = tested on: SF-539
SR = tested on: SR
T47D = tested on: T47D
UO-31 = tested on: UO-31
CCRF-CEM = tested on: CCRF-CEM

Structure (SMILES) | GI50 (A549) | GI50 (EKVX) | GI50 (HCT-116) | GI50 (K562) | GI50 (M14) | GI50 (MDA-MB-231) | GI50 (NCI-H460) | GI50 (NCI-H522) | GI50 (OVCAR-4) | GI50 (RXF 393) | GI50 (SF-539) | GI50 (SR) | GI50 (T47D) | GI50 (UO-31) | GI50 (CCRF-CEM)
NNC(=O)c1ccc(OCc2nc3ccccc3[nH]2)cc1 | > 100 µM (inactive) | > 100 µM (inactive) | 29.1 µM (inactive) | 39.5 µM (inactive) | 53.1 µM (inactive) | > 100 µM (inactive) | 31.8 µM (inactive) | 30 µM (inactive) | > 100 µM (inactive) | 34.8 µM (inactive) | > 100 µM (inactive) | 25.2 µM (inactive) | 53.7 µM (inactive) | 48.5 µM (inactive) | 
O=c1c2cc(-c3ccccc3)sc2nc2n1N=C(c1ccccc1)CS2 | 21.4 µM (inactive) | 24.9 µM (inactive) | 34.8 µM (inactive) | > 100 µM (inactive) |  | 39.8 µM (inactive) | 25.1 µM (inactive) | 22.4 µM (inactive) | 15.8 µM (inactive) | > 10 µM (inactive) | 27.9 µM (inactive) | > 100 µM (inactive) | 9.55 µM (inactive) | 62.2 µM (inactive) | 57.7 µM (inactive)
Cc1cc2nc3c(N)nn(CCN(C)C)c3nc2cc1C | 31.9 µM (inactive) | 58.7 µM (inactive) | 33.1 µM (inactive) | 83.4 µM (inactive) | 61.2 µM (inactive) | 33.8 µM (inactive) | 32.8 µM (inactive) | 40.1 µM (inactive) | 40.6 µM (inactive) | 30.4 µM (inactive) | 28.1 µM (inactive) | > 100 µM (inactive) | 42.3 µM (inactive) | 29 µM (inactive) | 42.3 µM (inactive)
CC(=O)O[C@H]1[C@@H](N2CCOCC2)C[C@H]2[C@@H]3CC=C4C[C@@H](N5CCCC5)CC[C@]4(C)[C@H]3CC[C@@]21C | > 100 µM (inactive) | > 100 µM (inactive) | 65.8 µM (inactive) | 24 µM (inactive) | 35.4 µM (inactive) | > 100 µM (inactive) | > 100 µM (inactive) | > 100 µM (inactive) | > 100 µM (inactive) | > 100 µM (inactive) | 73.8 µM (inactive) | 49.7 µM (inactive) | > 100 µM (inactive) | > 100 µM (inactive) | > 100 µM (inactive)
COc1cc(/C=N/N=C(\N)NO)cc(OC)c1OC | 18.7 µM (inactive) | 19.6 µM (inactive) | 32.1 µM (inactive) | 21.6 µM (inactive) | 28.4 µM (inactive) | > 100 µM (inactive) | 28.2 µM (inactive) | 34.8 µM (inactive) | 40.8 µM (inactive) | 52.6 µM (inactive) | 30.5 µM (inactive) | 24.5 µM (inactive) | 36.6 µM (inactive) | 33.1 µM (inactive) | 31.8 µM (inactive)
Fc1c(F)c(F)c2c(c1F)CSc1nc3ccccc3n1-2 | > 100 µM (inactive) | 5.16 µM (inactive) | > 100 µM (inactive) | > 100 µM (inactive) | > 100 µM (inactive) | > 100 µM (inactive) | > 100 µM (inactive) | > 100 µM (inactive) | > 100 µM (inactive) | > 100 µM (inactive) | > 100 µM (inactive) | > 100 µM (inactive) | > 100 µM (inactive) |  | > 100 µM (inactive)
Cc1cc(S(=O)(=O)NC2=Nc3ccc(Cl)cc3C(c3ccccc3)N2)c(S)cc1Cl (stereo not given) | 17.8 µM (inactive) | > 100 µM (inactive) | 36.8 µM (inactive) | 85.5 µM (inactive) | > 100 µM (inactive) | > 100 µM (inactive) | 8.79 µM (inactive) | > 100 µM (inactive) | 43.6 µM (inactive) | > 100 µM (inactive) | > 100 µM (inactive) | 14.3 µM (inactive) | 9.02 µM (inactive) | 46 µM (inactive) | 57.8 µM (inactive)
CCOC1=NC(C(F)(F)F)(C(F)(F)F)N=C(/N=C(/N)N(C)C(C(C)C)P(=O)(OC(C)C)OC(C)C)O1 (stereo not given) | > 100 µM (inactive) | 52 µM (inactive) | 82.2 µM (inactive) | 34.7 µM (inactive) | > 100 µM (inactive) | > 100 µM (inactive) | > 100 µM (inactive) | 27.9 µM (inactive) |  | 41 µM (inactive) | > 100 µM (inactive) | 55.3 µM (inactive) | 52.7 µM (inactive) | > 100 µM (inactive) | 23.8 µM (inactive)
COC(=O)C[C@H](COCc1ccccc1)NC(=O)C[C@H](COCc1ccccc1)NC(=O)OC(C)(C)C | 24.2 µM (inactive) | 18.9 µM (inactive) | 27.5 µM (inactive) | 40.2 µM (inactive) | 32.8 µM (inactive) | 36.6 µM (inactive) |  | 21.2 µM (inactive) | 18.5 µM (inactive) | 29.6 µM (inactive) | 34.7 µM (inactive) | 39.1 µM (inactive) | 33.9 µM (inactive) | 32.5 µM (inactive) | > 100 µM (inactive)
O=C1OC2(C(F)(F)F)Oc3ccccc3CN2C12CCCCC2 (stereo not given) | 28.6 µM (inactive) | 38.2 µM (inactive) | 20.2 µM (inactive) | 20.4 µM (inactive) | 19.5 µM (inactive) | 24.2 µM (inactive) | 22.5 µM (inactive) | 24.3 µM (inactive) | 31.8 µM (inactive) | 20.4 µM (inactive) | 33.4 µM (inactive) | 22.8 µM (inactive) | 21.8 µM (inactive) | 22.9 µM (inactive) | 25.1 µM (inactive)
O=C(/C=C/c1ccc2c(c1)OCO2)Cc1nc2ccccc2[nH]c1=O | 23.4 µM (inactive) | 31.9 µM (inactive) | 22.5 µM (inactive) | 5.3 µM (inactive) | 11.7 µM (inactive) | 20.2 µM (inactive) | 22.6 µM (inactive) | > 100 µM (inactive) |  | 17.9 µM (inactive) | 75 µM (inactive) | 25.5 µM (inactive) | 12 µM (inactive) | 22.9 µM (inactive) | 35.8 µM (inactive)
COc1ccc(OC)c2sc(N3C(=O)/C(=C/c4cccc([N+](=O)[O-])c4)N=C3c3ccccc3)nc12 | 47.1 µM (inactive) | > 100 µM (inactive) | > 100 µM (inactive) | 23.3 µM (inactive) | > 100 µM (inactive) | > 100 µM (inactive) | 77.1 µM (inactive) | 42.6 µM (inactive) |  | 55.1 µM (inactive) | 41.1 µM (inactive) | 23.7 µM (inactive) | 22.3 µM (inactive) | > 100 µM (inactive) | 24.9 µM (inactive)
O=C(c1ccco1)C1CC(c2ccc3ccccc3c2O)=NN1 (stereo not given) | 47 µM (inactive) |  | 57.4 µM (inactive) | 38.6 µM (inactive) | 54.8 µM (inactive) | 30.8 µM (inactive) | > 100 µM (inactive) | > 100 µM (inactive) | > 100 µM (inactive) | > 100 µM (inactive) | > 100 µM (inactive) | 20.2 µM (inactive) | 92.7 µM (inactive) | 89.7 µM (inactive) | 16.8 µM (inactive)
O=C1C=CC(O)(C#CCO)C=C1 | 23.8 µM (inactive) | 18.4 µM (inactive) | 15.8 µM (inactive) | 2.92 µM (inactive) | 19.5 µM (inactive) | 18.7 µM (inactive) | 21.2 µM (inactive) | 1.95 µM (inactive) | 11.9 µM (inactive) | 4.02 µM (inactive) | 17 µM (inactive) | 2.98 µM (inactive) | 15.2 µM (inactive) | 13.5 µM (inactive) | 11.6 µM (inactive)
C#C[C@]1(O)CC[C@H]2[C@@H]3CCC4=C/C(=N\OCCN5CCCCC5)CC[C@]4(C)[C@H]3CC[C@@]21C | 7.08 µM (inactive) | 8.15 µM (inactive) | 4.31 µM (inactive) | 1.65 µM (inactive) | 3.27 µM (inactive) | 13.9 µM (inactive) | 6.78 µM (inactive) | 2.47 µM (inactive) | 13.6 µM (inactive) | 2.86 µM (inactive) | 4.11 µM (inactive) | 1.48 µM (inactive) | 2.69 µM (inactive) | 4.23 µM (inactive) | 4.54 µM (inactive)
COc1cccc(-c2cc(=O)c3cc(N4CCCCC4)ccc3[nH]2)c1 | < 0.0206 µM (active) |  | < 0.01 µM (active) | < 0.01 µM (active) | < 0.0132 µM (active) | 0.0432 µM (active) | < 0.0199 µM (active) | < 0.0177 µM (active) | 1.51 µM (inactive) | < 0.01 µM (active) | < 0.01 µM (active) | < 0.01 µM (active) | > 100 µM (inactive) | 7.29 µM (inactive) | < 0.01 µM (active)
C=C(C)C(O)C(O)C[C@@H](C)C1CC[C@]23C[C@]12CCC1[C@@]2(C)CCC(OC(C)=O)C(C)(C)C2CC(OC2OC(CO)C(O)C(O)C2O)[C@]13C (stereo not given in full) | 50 µM (inactive) | 42.2 µM (inactive) | 15.9 µM (inactive) | 20.1 µM (inactive) | 15.2 µM (inactive) | 15 µM (inactive) | 17.9 µM (inactive) | 17 µM (inactive) | 16 µM (inactive) | 15.4 µM (inactive) | 14.6 µM (inactive) | 18.7 µM (inactive) | 17.4 µM (inactive) | > 100 µM (inactive) | 14.2 µM (inactive)
O=C(O)c1cc2cc(OCc3ccccc3)ccc2[nH]1 | > 100 µM (inactive) | > 100 µM (inactive) | > 100 µM (inactive) | > 100 µM (inactive) | > 100 µM (inactive) | > 100 µM (inactive) | > 100 µM (inactive) | > 100 µM (inactive) |  | > 100 µM (inactive) | > 100 µM (inactive) | > 100 µM (inactive) | > 100 µM (inactive) | > 100 µM (inactive) | > 100 µM (inactive)
